The numbers were not newly measured in patent US11547674B2, “Protein-polymer hybrid biomaterials” (The Regents of the University of California, priority 2018, dated 2023), which cites them from elsewhere.

SMILES strings stand for the structures.

This data set addresses Bacillus stearothermophillus LDH (Geobacillus stearothermophilus, UniProt P00344). The settings on record: read-out: Km of oxamate for LDH.

Sequence of Bacillus stearothermophillus LDH (P00344 whole entry): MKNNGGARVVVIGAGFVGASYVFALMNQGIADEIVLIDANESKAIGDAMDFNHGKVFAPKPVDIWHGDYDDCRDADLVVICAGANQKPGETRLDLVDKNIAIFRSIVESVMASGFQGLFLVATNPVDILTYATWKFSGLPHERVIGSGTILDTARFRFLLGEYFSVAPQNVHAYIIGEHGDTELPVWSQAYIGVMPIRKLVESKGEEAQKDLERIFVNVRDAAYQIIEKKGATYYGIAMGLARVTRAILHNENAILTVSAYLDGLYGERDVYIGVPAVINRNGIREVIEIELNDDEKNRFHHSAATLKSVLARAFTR

Broadly, the Km is the concentration of substrate that gives half-maximal velocity. Regarding `NC(=O)C(=O)O` [oxamate], the Km is 600 µM.
